Series [1] addresses B-Raf (Homo sapiens (Human), UniProt P15056). Nature of the series: B-Raf kinase activity biochemical assay (AlphaScreen, biotin-MEK1 phosphorylation). As to conditions: B-Raf. The method in brief:
(§1)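 Biotin-MEK1 phosphorylation measured after 45 min kinase reaction at RT with 100 μM ATP final; compounds tested at 8 points from 0.1 mM DMSO stock.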

Series [2] concerns B-Raf. The series is described as above. As to conditions: for Biochemical activity ratio B/V600E: ratio of IC50 B-Raf / B-Raf V600E; for Biochemical activity ratio B/C: ratio of IC50 B-Raf / c-Raf-1. The method, boiled down: as §1
The target in series [3] is B-Raf V600E (Homo sapiens (Human), UniProt P15056, V600E). Nature of the series: B-Raf V600E kinase activity biochemical assay (AlphaScreen, biotin-MEK1 phosphorylation). As to conditions: for IC50: B-Raf V600E; for Biochemical activity ratio V600E/C: ratio of IC50 B-Raf V600E / c-Raf-1. The method in brief: as §1
Series [4] has as its target c-Raf-1 (Homo sapiens, UniProt P04049). Nature of the series: c-Raf-1 kinase activity biochemical assay (AlphaScreen, biotin-MEK1 phosphorylation). The method in brief:
as §1
For orientation: Alpha assays give light when donor and acceptor beads are brought close together.

A short description of series [5]: Relative solubility by turbidity threshold concentration in aqueous buffers (pH 1.5, 4.5, 6.8, 7.4). The format is physicochemical. As to conditions: for turbidity threshold (L, M, H) 1.4: pH 1.4 [sic] (method: SGF pH 1.5); for turbidity threshold (L, M, H) 4.5: pH 4.5 (SIF); for turbidity threshold (L, M, H) 6.8: pH 6.8 (SIF); for turbidity threshold (L, M, H) 7.4: pH 7.4 (HEPES). The method in brief: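 Solubility class (high >250 μM, moderate 31.3–250 μM, low <31.3 μM) comes from the concentration where absorbance reaches a 0.01 threshold, averaged across 490/535/650 nm. Samples were compound dilutions from DMSO stock, 1 μL into 99 μL buffer at pH 1.5, 4.5, 6.8 or 7.4.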

Series [6] deals with CYP1A2 (Homo sapiens (Human), UniProt P05177). In words: CYP enzyme inhibition, fluorescent substrate (CEC). The method in brief: (§2)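 Ten-point 1:1 compound dilutions in NADPH-regenerating cofactor mix, pre-incubated 10 min at 37 °C before enzyme/substrate addition: CYP1A2 0.5 pmol with 5 μM CEC, 15 min, 409 ex/460 em; CYP2D6 1.5 pmol with 1.5 μM AMMC, 30 min, 409 ex/530 em. IC50 from fluorescent product vs concentration.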

The target in series [7] is CYP2C19 (Homo sapiens (Human), UniProt P33261). In words: CYP enzyme inhibition, fluorescent substrate (CEC). The method in brief:
(§3)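 IC50 values come from plotting product fluorescence against compound concentration; inhibition lowers formation of the fluorescent metabolite. Ten-point twofold dilutions in co-factor mix were held 10 minutes at 37 °C before the enzyme reaction, also run at 37 °C.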

Series [8] concerns the target CYP2C9 (Homo sapiens (Human), UniProt P11712). In words: CYP enzyme inhibition, fluorescent substrate (MFC). The method in brief:
as §3

Series [9] deals with CYP2D6 (Homo sapiens (Human), UniProt P10635). Nature of the series: CYP enzyme inhibition, fluorescent substrate (AMMC). It counts as in vitro ADME. As to conditions: read-out: Cyp IC50 2D6. The method, boiled down: as §2
Series [10] addresses CYP3A4(BFC) (Homo sapiens (Human), UniProt P08684). In words: CYP enzyme inhibition, fluorescent substrate BFC. The method, boiled down:
as §3

The target of series [11] is CYP3A4(BQ) (Homo sapiens (Human), UniProt P08684). In words: CYP enzyme inhibition, fluorescent substrate BQ. The method in brief: as §3
The target of series [12] is CYP3A4 (Homo sapiens (Human), UniProt P08684). Nature of the series: CYP enzyme inhibition, fluorescent substrate BFC. As to conditions: human, CYP3A4 enzyme (BD Biosciences), probe BFC. The method in brief:
as §3

Where [13] appears, read: read-out: Cyp IC50 2C9, CYP2C9, substrate MFC.
The mark [14] stands for this setting: read-out: Cyp IC50 3A4(BFC), CYP3A4, substrate BFC.
The mark [15] stands for this setting: read-out: Cyp IC50 3A4(BQ), CYP3A4, substrate BQ.

Structures are written as SMILES. pIC50: −log10 of the molar value. Read-outs that look alike come from different tables or passages of the source.

B-Raf V600E, sequence (P15056 whole entry V600E): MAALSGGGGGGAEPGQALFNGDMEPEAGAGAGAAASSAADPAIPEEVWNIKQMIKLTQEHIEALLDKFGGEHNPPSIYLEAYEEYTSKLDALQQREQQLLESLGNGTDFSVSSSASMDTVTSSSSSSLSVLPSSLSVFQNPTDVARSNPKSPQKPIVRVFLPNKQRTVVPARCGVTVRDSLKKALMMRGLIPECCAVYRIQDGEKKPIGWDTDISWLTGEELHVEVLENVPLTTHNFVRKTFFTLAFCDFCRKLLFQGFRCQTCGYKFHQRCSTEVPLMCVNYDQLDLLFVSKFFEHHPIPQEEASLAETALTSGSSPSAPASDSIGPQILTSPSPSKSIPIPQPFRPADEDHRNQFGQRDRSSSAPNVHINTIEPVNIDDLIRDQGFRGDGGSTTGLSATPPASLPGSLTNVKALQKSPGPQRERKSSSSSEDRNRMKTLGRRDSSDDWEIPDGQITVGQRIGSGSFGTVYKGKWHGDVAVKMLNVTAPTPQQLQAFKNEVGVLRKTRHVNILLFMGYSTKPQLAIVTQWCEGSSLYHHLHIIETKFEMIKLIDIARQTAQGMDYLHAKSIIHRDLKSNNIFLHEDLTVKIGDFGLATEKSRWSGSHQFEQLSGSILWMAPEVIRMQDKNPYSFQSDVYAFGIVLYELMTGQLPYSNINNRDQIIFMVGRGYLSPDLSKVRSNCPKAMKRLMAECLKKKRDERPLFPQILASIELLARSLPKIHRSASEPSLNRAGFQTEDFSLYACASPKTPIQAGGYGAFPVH
B-Raf (Homo sapiens (Human), UniProt P15056), sequence (P15056 whole entry): as the sequence (P15056 whole entry V600E) above, with E600V counted along it
CYP2C9, sequence (P11712 whole entry): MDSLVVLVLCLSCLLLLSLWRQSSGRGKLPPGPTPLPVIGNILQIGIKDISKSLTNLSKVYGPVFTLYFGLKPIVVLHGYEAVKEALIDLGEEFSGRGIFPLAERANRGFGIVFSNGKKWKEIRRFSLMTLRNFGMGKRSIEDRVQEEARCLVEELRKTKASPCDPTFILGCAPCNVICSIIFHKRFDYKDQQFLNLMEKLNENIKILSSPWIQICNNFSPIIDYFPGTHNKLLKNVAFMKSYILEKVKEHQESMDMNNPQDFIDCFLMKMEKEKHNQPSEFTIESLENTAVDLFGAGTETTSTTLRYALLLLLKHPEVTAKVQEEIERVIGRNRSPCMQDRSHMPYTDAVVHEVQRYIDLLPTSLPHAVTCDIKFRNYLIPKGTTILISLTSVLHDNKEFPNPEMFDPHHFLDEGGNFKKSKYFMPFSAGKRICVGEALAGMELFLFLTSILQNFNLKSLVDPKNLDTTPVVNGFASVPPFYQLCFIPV
CYP2C19, sequence (P33261 whole entry): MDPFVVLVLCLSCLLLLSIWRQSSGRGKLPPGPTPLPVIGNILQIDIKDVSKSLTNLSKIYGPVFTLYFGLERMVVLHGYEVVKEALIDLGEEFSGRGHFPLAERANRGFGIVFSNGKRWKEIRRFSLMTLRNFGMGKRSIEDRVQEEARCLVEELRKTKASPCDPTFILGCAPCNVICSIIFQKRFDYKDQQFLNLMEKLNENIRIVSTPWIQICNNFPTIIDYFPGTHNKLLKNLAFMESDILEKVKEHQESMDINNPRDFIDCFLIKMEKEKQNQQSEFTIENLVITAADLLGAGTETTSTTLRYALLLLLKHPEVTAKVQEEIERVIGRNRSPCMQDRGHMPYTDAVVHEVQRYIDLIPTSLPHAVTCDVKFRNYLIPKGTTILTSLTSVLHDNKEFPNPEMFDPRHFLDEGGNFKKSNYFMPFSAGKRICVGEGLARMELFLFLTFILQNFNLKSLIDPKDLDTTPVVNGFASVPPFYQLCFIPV
CYP3A4(BQ), sequence (P08684 whole entry): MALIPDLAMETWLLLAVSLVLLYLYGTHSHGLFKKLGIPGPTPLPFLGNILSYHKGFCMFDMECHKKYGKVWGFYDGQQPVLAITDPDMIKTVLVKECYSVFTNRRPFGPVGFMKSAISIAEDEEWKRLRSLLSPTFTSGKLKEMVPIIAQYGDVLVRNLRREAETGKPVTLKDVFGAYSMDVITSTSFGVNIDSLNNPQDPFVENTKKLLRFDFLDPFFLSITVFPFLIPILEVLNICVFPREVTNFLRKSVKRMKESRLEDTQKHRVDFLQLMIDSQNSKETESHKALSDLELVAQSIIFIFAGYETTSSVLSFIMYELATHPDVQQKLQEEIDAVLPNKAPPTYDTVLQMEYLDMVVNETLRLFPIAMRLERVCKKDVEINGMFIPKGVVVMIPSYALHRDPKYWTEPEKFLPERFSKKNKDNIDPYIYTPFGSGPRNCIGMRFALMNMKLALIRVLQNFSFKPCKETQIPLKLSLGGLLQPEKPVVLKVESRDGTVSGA
CYP3A4(BFC), sequence (P08684 whole entry): as above
c-Raf-1, sequence (P04049 whole entry, looked up): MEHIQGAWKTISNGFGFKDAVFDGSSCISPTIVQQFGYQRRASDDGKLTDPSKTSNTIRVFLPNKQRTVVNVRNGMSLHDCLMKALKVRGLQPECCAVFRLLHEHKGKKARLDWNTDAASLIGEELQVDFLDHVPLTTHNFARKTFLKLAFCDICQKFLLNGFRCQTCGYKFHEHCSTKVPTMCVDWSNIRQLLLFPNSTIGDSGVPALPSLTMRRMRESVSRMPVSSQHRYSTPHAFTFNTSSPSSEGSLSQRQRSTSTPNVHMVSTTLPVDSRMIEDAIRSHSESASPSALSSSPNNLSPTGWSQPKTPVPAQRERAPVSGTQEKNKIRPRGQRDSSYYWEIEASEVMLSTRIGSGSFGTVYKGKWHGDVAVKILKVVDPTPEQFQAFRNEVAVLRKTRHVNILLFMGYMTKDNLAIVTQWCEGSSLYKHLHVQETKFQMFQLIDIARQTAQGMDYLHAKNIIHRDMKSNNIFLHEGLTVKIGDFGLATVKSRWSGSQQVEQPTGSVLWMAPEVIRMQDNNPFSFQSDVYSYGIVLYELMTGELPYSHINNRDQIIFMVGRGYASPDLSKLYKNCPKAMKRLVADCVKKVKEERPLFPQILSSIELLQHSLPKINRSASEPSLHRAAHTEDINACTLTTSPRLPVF
CYP1A2, sequence (P05177 whole entry): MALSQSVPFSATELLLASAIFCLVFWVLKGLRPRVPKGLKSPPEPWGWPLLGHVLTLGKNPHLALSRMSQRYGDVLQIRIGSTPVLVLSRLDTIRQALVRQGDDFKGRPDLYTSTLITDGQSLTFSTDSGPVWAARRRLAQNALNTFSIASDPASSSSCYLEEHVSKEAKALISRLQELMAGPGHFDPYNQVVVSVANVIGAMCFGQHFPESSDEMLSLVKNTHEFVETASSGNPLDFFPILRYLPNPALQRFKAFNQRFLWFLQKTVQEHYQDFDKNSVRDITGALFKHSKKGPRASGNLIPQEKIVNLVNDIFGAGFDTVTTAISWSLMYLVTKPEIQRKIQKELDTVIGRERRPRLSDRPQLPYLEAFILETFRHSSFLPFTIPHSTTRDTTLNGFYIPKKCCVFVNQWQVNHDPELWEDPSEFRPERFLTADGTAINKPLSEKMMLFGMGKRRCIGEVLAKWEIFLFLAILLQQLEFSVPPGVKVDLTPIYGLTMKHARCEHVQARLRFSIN
CYP2D6, sequence (P10635 whole entry): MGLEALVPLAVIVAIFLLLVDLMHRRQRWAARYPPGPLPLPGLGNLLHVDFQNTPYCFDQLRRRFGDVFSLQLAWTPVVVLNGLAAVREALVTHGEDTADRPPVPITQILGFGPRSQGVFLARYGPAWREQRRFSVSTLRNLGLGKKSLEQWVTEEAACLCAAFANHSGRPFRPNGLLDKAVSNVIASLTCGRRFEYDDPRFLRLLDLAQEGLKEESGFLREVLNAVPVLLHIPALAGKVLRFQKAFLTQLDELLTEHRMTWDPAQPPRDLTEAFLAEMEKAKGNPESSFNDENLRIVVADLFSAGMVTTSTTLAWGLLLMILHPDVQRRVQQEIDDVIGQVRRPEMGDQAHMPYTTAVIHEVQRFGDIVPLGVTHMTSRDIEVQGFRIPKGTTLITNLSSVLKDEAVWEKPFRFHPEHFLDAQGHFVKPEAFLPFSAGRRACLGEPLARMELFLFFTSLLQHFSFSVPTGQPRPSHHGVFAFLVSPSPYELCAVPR
CYP3A4, sequence (P08684 whole entry): as the sequence (P08684 whole entry) above

As a reminder, the IC50 is the concentration needed to halve the response being measured. Broadly, the pIC50 is −log10 of the IC50, conventionally taken in molar units. On to `N#Cc1c(F)cnc2[nH]cc(C(=O)c3c(F)ccc(NS(=O)(=O)c4ccc(C(F)(F)F)cc4)c3F)c12` [P-2009, N-[3-(4-Cyano-5-fluoro-1H-pyrrolo[2,3-b]pyridine-3-carbonyl)-2,4-difluoro-phenyl]-4-trifluoromethyl-benzenesulfonamide], for which the 50% inhibitory concentration (IC50) in series [1] is < 0.1 µM; in [3], > 0.1 µM; in [4] it was < 0.1 µM. Moreover, in [2], the “Biochemical activity ratio B/V600E” value is 0.1-10. Further, the “Biochemical activity ratio B/C” value in series [2] is on record as >10. Also, in [3], the “Biochemical activity ratio V600E/C” value was >10. For the same compound, the “turbidity threshold (L, M, H) 1.4” value in series [5] is “L (low solubility if the threshold concentration is <31.3 μM)”. Also, the “turbidity threshold (L, M, H) 4.5” value in series [5] was “M (moderate solubility if the threshold concentration is 31.3 μM to 250 μM)”. The “turbidity threshold (L, M, H) 6.8” value in series [5] is given as “M (moderate solubility if the threshold concentration is 31.3 μM to 250 μM)”. Moreover, in series [5], the “turbidity threshold (L, M, H) 7.4” value is “M (moderate solubility if the threshold concentration is 31.3 μM to 250 μM)”. The pIC50 in series [6], in series [7], in series [8], in series [9], in series [10] and in series [11] was < 5.00 in each case.

For `CCCS(=O)(=O)Nc1ccc(F)c(C(=O)c2c[nH]c3nccc(NC4CCCC4)c23)c1F` [P-2012, Propane-1-sulfonic acid [3-(4-cyclopentylamino-1H-pyrrolo[2,3-b]pyridine-3-carbonyl)-2,4-difluoro-phenyl]-amide], the IC50 in [1] is > 0.1 µM; in [3], < 0.1 µM; in series [4], < 0.1 µM. The “Biochemical activity ratio B/V600E” value in series [2] is recorded as 0.1-10. Also, the “Biochemical activity ratio B/C” value in [2] was >10. The “Biochemical activity ratio V600E/C” value in [3] is 0.1-10. In addition, the IC50 at 15 min in series [6] (human, CYP1A2 enzyme (BD Biosciences), probe CEC) is > 10 µM. Besides, the IC50 at 30 min was > 10 µM in [7] (human, CYP2C19 enzyme (BD Biosciences), probe CEC); > 10 µM in series [9] (human, CYP2D6 enzyme (BD Biosciences), probe AMMC); > 10 µM in series [12]. The IC50 at 45 min in [8] (human, CYP2C9 enzyme (BD Biosciences), probe MFC) was > 10 µM. Moreover, the pIC50 in series [11] is < 5.00.

`O=C(c1c(F)ccc(NS(=O)(=O)c2ccc(C(F)(F)F)cc2)c1F)c1c[nH]c2ncnc(NC3CC3)c12` [P-1011, N-[3-(4-Cyclopropylamino-7H-pyrrolo[2,3-d]pyrimidine-5-carbonyl)-2,4-difluoro-phenyl]-4-trifluoromethyl-benzenesulfonamide]: the IC50 in series [1] is < 0.1 µM; in [3] it was > 0.1 µM; in [4], < 0.1 µM. The “Biochemical activity ratio B/V600E” value in series [2] is on record as 0.1-10. The “Biochemical activity ratio B/C” value in [2] is given as >10. For the same compound, the “Biochemical activity ratio V600E/C” value in [3] is on record as >10. In addition, the “turbidity threshold (L, M, H) 1.4” value in series [5] is “M (moderate solubility if the threshold concentration is 31.3 μM to 250 μM)”. Also, the “turbidity threshold (L, M, H) 4.5” value in [5] is recorded as “L (low solubility if the threshold concentration is <31.3 μM)”. Further, in series [5], the “turbidity threshold (L, M, H) 6.8” value is recorded as “L (low solubility if the threshold concentration is <31.3 μM)”. In addition, the “turbidity threshold (L, M, H) 7.4” value in series [5] is “L (low solubility if the threshold concentration is <31.3 μM)”. In addition, the pIC50 in series [6] (human, 15 min) was < 5.00; in series [7], 5.00 to 5.30; in series [8] (setting [13]) it was < 5.00; in [9] it was < 5.00; in [10] (setting [14]) it was > 5.30; in series [11] (setting [15]), < 5.00.

Regarding `CCCc1ccc(S(=O)(=O)Nc2ccc(F)c(C(=O)c3c[nH]c4ncnc(NC5COC5)c34)c2F)cc1` [P-1056, N-{2,4-Difluoro-3-[4-(oxetan-3-ylamino)-7H-pyrrolo[2,3-d]pyrimidine-5-carbonyl]-phenyl}-4-propyl-benzenesulfonamide], the IC50 in series [1] was < 0.1 µM; in [3], > 0.1 µM; in [4], < 0.1 µM. In [2], the “Biochemical activity ratio B/V600E” value was 0.1-10. Also, the “Biochemical activity ratio B/C” value in [2] is on record as >10. Moreover, the “Biochemical activity ratio V600E/C” value in series [3] is recorded as >10. Moreover, the “turbidity threshold (L, M, H) 1.4” value in series [5] is “M (moderate solubility if the threshold concentration is 31.3 μM to 250 μM)”. Also, the “turbidity threshold (L, M, H) 4.5” value in series [5] was “L (low solubility if the threshold concentration is <31.3 μM)”. The “turbidity threshold (L, M, H) 6.8” value in series [5] is on record as “L (low solubility if the threshold concentration is <31.3 μM)”. Moreover, the “turbidity threshold (L, M, H) 7.4” value in series [5] is given as “L (low solubility if the threshold concentration is <31.3 μM)”. The pIC50 in series [6] (human, 15 min) was < 5.00; in series [7] (read-out: Cyp IC50 2C19, CYP2C19, substrate CEC) it was < 5.00; in series [8] (setting [13]), < 5.00; in series [9] it was < 5.00; in series [10] (setting [14]) it was < 5.00; in [11] (setting [15]), < 5.00.
